Test results: PubChem BioAssay AID1918957 (Molecular Pharmacology Branch, DTP, NCI, 2023)

System: NCI-H1876 complex spheroid viability
Assay: Anticancer human tumor NCI-H1876 cell line growth inhibition [LSD1];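 further: spheroids exposed to compounds for one week before readout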;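 on viability, T/C: 100% = DMSO vehicle-treated spheroids so lower means fewer viable cells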
Conditions: for IC50: curve of first compound; for viability, T/C: stronger effect = lower value; active means viability on the fitted dose curve at most 10% of control; inactive means the rest
How it was run: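 Multicellular complex spheroids of tumor cells with human endothelial cells (HUVEC) and mesenchymal stem cells; the LSD1 inhibitor iadademstat was combined with standard-of-care or investigational agents. Top concentration at or near clinical Cmax, half-log dilutions; final DMSO ≤0.25%.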

[1] = second compound 0.1 µM, first compound 0.0316 µM
[2] = second compound 0.1 µM, first compound 0.1 µM
[3] = second compound 0.1 µM, first compound 0.316 µM
[4] = second compound 0.1 µM, first compound 1 µM
[5] = second compound 0.1 µM, first compound 3.16 µM
[6] = second compound 0.1 µM, first compound 10 µM
[7] = second compound 0.316 µM, first compound 0.0316 µM
[8] = second compound 0.316 µM, first compound 0.1 µM
[9] = second compound 0.316 µM, first compound 0.316 µM
[10] = second compound 0.316 µM, first compound 1 µM
[11] = second compound 0.316 µM, first compound 3.16 µM
[12] = second compound 0.316 µM, first compound 10 µM
[13] = second compound 1 µM, first compound 0.0316 µM
[14] = second compound 1 µM, first compound 0.1 µM
[15] = second compound 1 µM, first compound 0.316 µM
[16] = second compound 1 µM, first compound 1 µM
[17] = second compound 1 µM, first compound 3.16 µM
[18] = second compound 1 µM, first compound 10 µM
[19] = second compound 3.16 µM, first compound 0.0316 µM
[20] = second compound 3.16 µM, first compound 0.1 µM
[21] = second compound 3.16 µM, first compound 0.316 µM
[22] = second compound 3.16 µM, first compound 1 µM
[23] = second compound 3.16 µM, first compound 3.16 µM
[24] = second compound 3.16 µM, first compound 10 µM
[25] = second compound 10 µM, first compound 0.0316 µM
[26] = second compound 10 µM, first compound 0.1 µM
[27] = second compound 10 µM, first compound 0.316 µM
[28] = second compound 10 µM, first compound 1 µM
[29] = second compound 10 µM, first compound 3.16 µM
[30] = second compound 10 µM, first compound 10 µM

CC(C)c1c(-c2ccccc2)nc2c(C#N)c[nH]n2c1=O + NC1CCC(NC2CC2c2ccccc2)CC1
6.83 µM: IC50 (second compound 1 µM)
6.12 µM: IC50 (second compound 3.16 µM)
6.21 µM: IC50 (second compound 10 µM)
inactive: viability, T/C [1] 100% | viability, T/C [2] 97.1% | viability, T/C [3] 109% | viability, T/C [4] 97% | viability, T/C [5] 94.2% | viability, T/C [6] 30.1% | viability, T/C [7] 90.2% | viability, T/C [8] 106% | viability, T/C [9] 103% | viability, T/C [10] 88.9% | viability, T/C [11] 93.1% | viability, T/C [12] 32.4% | viability, T/C [13] 97.1% | viability, T/C [14] 101% | viability, T/C [15] 99.8% | viability, T/C [16] 95.1% | viability, T/C [17] 89.7% | viability, T/C [18] 30.7% | viability, T/C [19] 99% | viability, T/C [20] 106% | viability, T/C [21] 102% | viability, T/C [22] 92% | viability, T/C [23] 88.2% | viability, T/C [24] 22.5% | viability, T/C [25] 89.4% | viability, T/C [26] 93.6% | viability, T/C [27] 92.6% | viability, T/C [28] 99.3% | viability, T/C [29] 90.5% | viability, T/C [30] 21.3%
7.01 µM: IC50 (second compound 0.1 µM)
7.17 µM: IC50 (second compound 0.316 µM)

CC1COCCN1c1cc(-c2ccnn2C)c2ccnc(-c3ccn[nH]3)c2n1 (stereo not given) + NC1CCC(NC2CC2c2ccccc2)CC1
inactive: viability, T/C (second compound 0.1 µM, first compound 0.00316 µM) 86.9% | viability, T/C (second compound 0.1 µM, first compound 0.01 µM) 70.5% | viability, T/C [1] 34.9% | viability, T/C [2] 25.3% | viability, T/C [3] 23.4% | viability, T/C [4] 12.1% | viability, T/C (second compound 0.316 µM, first compound 0.00316 µM) 83.5% | viability, T/C (second compound 0.316 µM, first compound 0.01 µM) 79.7% | viability, T/C [7] 35.7% | viability, T/C [8] 28.7% | viability, T/C [9] 11% | viability, T/C [10] 21.8% | viability, T/C (second compound 1 µM, first compound 0.00316 µM) 80.5% | viability, T/C (second compound 1 µM, first compound 0.01 µM) 68.3% | viability, T/C [13] 35.9% | viability, T/C [14] 15.2% | viability, T/C [15] 11.6% | viability, T/C [16] 12.7% | viability, T/C (second compound 3.16 µM, first compound 0.00316 µM) 77.4% | viability, T/C (second compound 3.16 µM, first compound 0.01 µM) 66.8% | viability, T/C [19] 36% | viability, T/C [20] 16% | viability, T/C [21] 12.4% | viability, T/C [22] 12.7% | viability, T/C (second compound 10 µM, first compound 0.00316 µM) 64.5% | viability, T/C (second compound 10 µM, first compound 0.01 µM) 50.2% | viability, T/C [25] 31.1% | viability, T/C [26] 19.9% | viability, T/C [27] 16.7% | viability, T/C [28] 11.4%
0.0199 µM: IC50 (second compound 0.1 µM)
0.0191 µM: IC50 (second compound 1 µM)
0.0219 µM: IC50 (second compound 0.316 µM)
0.00968 µM: IC50 (second compound 10 µM)
0.0187 µM: IC50 (second compound 3.16 µM)

COc1ccc([C@@H](O)c2cc(-c3ncnc4cc(N5CCOCC5)ccc34)c(F)cc2Cl)nn1 + NC1CCC(NC2CC2c2ccccc2)CC1
3.48 µM: IC50 (second compound 3.16 µM)
inactive: viability, T/C [1] 109% | viability, T/C [2] 97.4% | viability, T/C [3] 109% | viability, T/C [4] 91.2% | viability, T/C [5] 49.2% | viability, T/C [6] 23.4% | viability, T/C [7] 112% | viability, T/C [8] 105% | viability, T/C [9] 95.8% | viability, T/C [10] 85.3% | viability, T/C [11] 50.7% | viability, T/C [12] 21.3% | viability, T/C [13] 113% | viability, T/C [14] 107% | viability, T/C [15] 99.7% | viability, T/C [16] 84.7% | viability, T/C [17] 53.9% | viability, T/C [18] 24.5% | viability, T/C [19] 113% | viability, T/C [20] 113% | viability, T/C [21] 94.3% | viability, T/C [22] 76.4% | viability, T/C [23] 54.2% | viability, T/C [24] 21.9% | viability, T/C [25] 101% | viability, T/C [26] 110% | viability, T/C [27] 94.2% | viability, T/C [28] 70.9% | viability, T/C [29] 53.3% | viability, T/C [30] 26%
3.13 µM: IC50 (second compound 10 µM)
3.49 µM: IC50 (second compound 0.316 µM)
3.78 µM: IC50 (second compound 1 µM)
3.07 µM: IC50 (second compound 0.1 µM)
